Data: patent US6087391A, “Method of rendering organic compounds soluble in fatty systems, novel chemical complexes of such compounds and various applications of the complexes” (priority 1994, dated 2000)

Experiment: Simulation of bioavailability: availability of test compound in standardised enteric juice
Conditions: enteric juice pH 8.3, 37 degrees Celsius; mean over the entire experiment (60-240 minutes); mean of two experiments
Method: 5 g of test compound either pure or in ethanolic solution was mixed with 5-20 g of the below mentioned carrier. After vigorously mixing ethanol was removed by evaporation.
The following carrier was used: diacetylated monoglyceride with the following fatty acid composition based on the monoglyceride: about 50% lauric acid (12:0), 20% myristic acid (14:0), 15% caprylic/capric acid (8:0 and 10:0) and 10% palmitic acid (16:0).
The pH was adjusted to 8.3.
0.500 g complex and 50 ml of standardised enteric juice was mixed in a 100 ml vessel and placed on a shaking water bath at 37 degrees Celsius under moderate agitation. As controls pure test compound corresponding to 0.500 g complex was used instead of 0.500 g complex.
Samples of 1.000 ml were collected after 60, 120, 180 and 240 minutes. The samples were extracted with 1.5 ml of 1-butanol. The concentration of test compound in the enteric juice was determined by an appropriate method (spectrophotometrically or by HPLC).

availability in the complex form compared to pure test compound: 2,2 times
Compound: COC1=C(OC)C(=O)C(C/C=C(\C)CC/C=C(\C)CC/C=C(\C)CC/C=C(\C)CC/C=C(\C)CC/C=C(\C)CC/C=C(\C)CC/C=C(\C)CC/C=C(\C)CCC=C(C)C)=C(C)C1=O [Q10, coenzyme Q10]
